# Experiments:
# [1] = Serum concentration and bioavailability after administration to mice (ELISA); format: in vivo, CD-1 mice
# Description: The blood sample was allowed to clot at room temperature for 15-30 minutes and then the tube was centrifuged at 4° C., 10,000 RPM, for 10 minutes in order to isolate serum. Serum was collected, aliquoted, and stored −80° C. for future testing.
# After washing away any unbound conjugate, substrate was added to the wells and incubated, yielding a blue color that turned yellow when stop solution was added. The optical density was measured at 450 nm and a standard curve was generated.
# HLA-DR4 (DRB1*0401) = HLA-DR4 (DRB1*0401) (Homo sapiens, UniProt P01903+P01911, A100K/A169T/F76Y/I96L/K127E/L162R/M171V/N62H/P40V/Q125Y/R42H/S133A/S149N/S66Y/V115G/V209L/W38E); details: RA-associated, peptide-specific manner; cited from earlier work
# [2] = system: anti-PI-2301 biotinylated antibody (bAb); experiment: Direct competition ELISA, specificity of the anti-PI-2301 biotinylated antibody; format: binding, rabbit
# Description: A direct competition ELISA was carried out for the detection and quantitation of PI-2301, an RSP composition. […] Unbound material was washed away and diluted streptavidin-horseradish peroxidase (HRP) conjugate was added to the wells. After washing away any unbound streptavidin conjugate, substrate for HRP catalyzed […] was added to the wells and incubated, yielding a blue color that turns yellow when stop solution is added. The optical density of the color was measured at 450 nm using a microtiter plate reader (for example, Bio-Tek ELx405) and a standard curve was generated.
# Specificity is the ability of a method to measure the material of interest to the exclusion of other similar compounds. In this method, specificity is a function of the anti-PI-2301 biotinylated antibody (bAb). If the bAb recognizes, and binds preferentially to, the compound in the serum the bAb will be washed away and the final A450 value will be low. […] Table 5 summarizes the A450 specificity data for 3 compounds spiked into mouse serum.
# HLA-DR1 (DRB1*0101) = HLA-DR1 (DRB1*0101) (Homo sapiens, UniProt P01903+P01911, A100R/D57E/F55L/F60I/F76Y/I96L/L162R/M171V/P40L/Q125E/R42F/V115G/Y59C); details: RA-associated, peptide-specific manner; cited from earlier work
# MS = details: Bornstein 1987; Johnson 1995; cited from earlier work
# [3] = system: myeloid cells isolated from femurs of immunologically naive mice; experiment: In vitro effects on macrophages: cytokines and chemokines in supernatants; format: cell-based; details: culture supernatant
# Source text: Isolated cells were labeled with magnetic beads and T- and B-cells were depleted from the sample. […] TNFα, IL-6, CXCL1 and CXCL2 as inflammatory markers, and IL-12p70, CXCL13, and CCL22 as regulatory markers.
# HLA-DR2 (DRB1*1501) = HLA-DR2 (DRB1*1501) (Homo sapiens, UniProt P01903+P01911); details: MS-associated, peptide-specific manner; cited from earlier work
substance,measurement,setting,value
glatiramer acetate [Cop-1],time of peak serum concentration,[1]; after subcutaneous administration to mice,about 15 minutes
same,administered amount available in the plasma (bioavailability),"[1]; mice, single subcutaneous or intravenous administration",About 8.5%
same,binding to purified HLA-DR4 (DRB1*0401),HLA-DR4 (DRB1*0401),high affinity
same,detection by the antibody for PI-2301,[2],detects Cop-1 efficiently
same,binding to purified HLA-DR1 (DRB1*0101),HLA-DR1 (DRB1*0101),high affinity
same,effect on MS in patients,MS,ameliorate MS but does not suppress the disease entirely
same,expression of CXCL1,[3],no significant effect
same,expression of CXCL2,[3],no significant effect
same,expression of IL-6,[3],no significant effect
same,expression of TNFα,[3],no significant effect
same,binding to purified HLA-DR2 (DRB1*1501),HLA-DR2 (DRB1*1501),high affinity
